{
  "source": "paper PMC7052167",
  "about": "“TCR–pMHC bond conformation controls TCR ligand discrimination” (Cellular and Molecular Immunology, 2019)",
  "type_in_all_cases": "cell-based, mouse",
  "key": {"[1]": {"system": "TCR microclusters of 5C.C7 T cells", "assay": "TCR microcluster formation at the T-cell synapse", "conditions": "10 μM PP2", "description": "TCRs form microclusters upon antigen stimulation (Movie S4). To measure the conformational dynamics of single TCR–pMHC bonds without possible interference from TCR microclusters, we used latrunculin A (LA) to prevent the formation of TCR microclusters during smFRET measurements. […] We then performed smFRET in the absence of TCR microclusters.\nTo test whether TCR–CD3ζ conformational changes were dependent on TCR signaling, we used an Src kinase inhibitor PP2[27] to block TCR signaling. Consistent with the results of a previous study,[21] […] To reveal the role of TCR signaling in TCR–CD3ζ conformational changes, we plotted the time trajectories of the normalized intramolecular TCR–CD3ζ distances against the stimulation time in the absence and presence of PP2 (Fig. 4d). In the absence of PP2, the intracellular CD3ζ chain quickly separated from the TCR extracellular domain upon TCR engagement with the K5 pMHC and then reached a stable, fully extended TCR–CD3ζ conformation.\n(§1) To measure the TCR–pMHC bond distance by smFRET in the absence of CD4 binding, T cells were incubated with 10 μg/mL anti-CD4 antibody (GK 1.5, Biolegend) and 0.027 µg/µL of Cy5-J1 scFV for 30 min at 4 °C. After three washes, the cells were added to a lipid bilayer containing Cy3-pMHCs, and smFRET assays were performed in the continuous presence of 10 μg/mL anti-CD4 antibody at 37 °C using TIRF microscopy. […]"}, "[2]": {"system": "TCR–CD3ζ complex of 5C.C7 T cells", "assay": "Transmembrane TCR–CD3ζ FRET2 (GFP/Alexa Fluor 568), intramolecular TCR–CD3ζ distance", "conditions": "10 μM PP2", "description": "To determine the conformation of a single TCR–pMHC bond, a TCR and a pMHC were site-specifically labeled with the FRET acceptor Cy5 and the FRET donor Cy3, respectively.[8] The peptide within the MHC molecule was labeled with Cy3, and the TCR was labeled with the anti-TCR single-chain variable fragment (scFv) J1-Cy5 (Fig. 1a and Fig. S1a). The intermolecular distance between Cy3 and Cy5 provided a reasonable approximation of the conformation (or compactness) of the TCR–pMHC bond. The conformation of a single TCR–pMHC bond on the cell surface was measured by Cy3/Cy5 FRET (FRET1) (Fig. 1a) in real time by total internal reflection fluorescence (TIRF) microscopy (Fig. S1b). The Cy3/Cy5 inter-dye distance of a TCR–pMHC bond is denoted as the TCR–pMHC bond distance to describe the TCR–pMHC bond conformation in the following paragraphs. […] The real-time intramolecular distances of the TCR–CD3ζ complexes were measured by GFP/Alexa Fluor 568 FRET (FRET2) (Fig. 1a) using epifluorescence time-lapse microscopy (Fig. S1b).\nIt is not clear what induces the dissociation of CD3ζ from the membrane to initiate T-cell intracellular signaling. […] We tracked and measured the FRET efficiencies of each individual microcluster in real time. […]"}, "[3]": {"system": "5C.C7 T cell", "assay": "T-cell calcium signaling (fluorescence imaging)", "conditions": "10 μM PP2; X-Rhod-5F indicator, 37 °C", "description": "To understand how the TCR–pMHC bond conformation triggers T-cell signaling, we devised a fluorescence micropipette assay to measure real-time T-cell calcium signaling at the single-cell level. Fast single T-cell calcium flux was observed upon T cell/APC contact (bond formation). Consistently, the calcium signaling amplitude and speed were dependent on the peptide potency (Fig. 5e, f, Fig. S15, and Movie S7). To link the TCR conformational change to TCR signaling, we simultaneously plotted the association of the TCR–CD3ζ conformational change with the Ca^2+ signal against the stimulation time. […] Ca^2+ release in turn drives the dissociation of positively charged CD3ζ from the negatively charged phospholipids in the plasma membrane[32] to expose the CD3ζ ITAM domains for phosphorylation via a Ca^2+ signaling feedback loop (Fig. 5h).\nas §1"}},
  "data": [
    {"smiles": "CC(C)(C)n1nc(-c2ccc(Cl)cc2)c2c(N)ncnc21", "note": "[PP2]", "values": [
      {"measurement": "effect of PP2 on TCR microcluster formation", "setting": "[1]", "value": "TCRs could still form microclusters"},
      {"measurement": "effect of PP2 on TCR–CD3ζ conformational change", "setting": "[2]; K5 pMHC, 37 °C", "value": "completely abolished the TCR-CD3 conformational change"},
      {"measurement": "effect of PP2 on TCR–CD3ζ conformational change (MCC and 102S)", "setting": "[2]; MCC and 102S pMHCs, Fig. S11", "value": "this effect of TCR signaling was also found"},
      {"measurement": "effect of PP2 on T-cell calcium signaling", "setting": "[3]", "value": "completely abrogated T-cell calcium signaling"}
    ]}
  ]
}
